Tests used:
Format in all cases: functional
IGROV-1 = experiment: Cytotoxicity against Homo sapiens (human) IGROV1 cells after 48 hr by sulforhodamine B assay; conditions: IGROV-1, 48 h
HOP-62 = experiment: Cytotoxicity against Homo sapiens (human) HOP62 cells after 48 hr by sulforhodamine B assay; conditions: HOP-62, 48 h
DU-145 = experiment: Cytotoxicity against Homo sapiens (human) DU145 cells after 48 hr by sulforhodamine B assay; conditions: DU-145, 48 h
MDA-MB-435 = experiment: Cytotoxicity against Homo sapiens (human) MDA-MB-435 cells after 48 hr by sulforhodamine B assay; conditions: MDA-MB-435, 48 h
SNB-75 = experiment: Cytotoxicity against Homo sapiens (human) SNB75 cells after 48 hr by sulforhodamine B assay; conditions: SNB-75, 48 h
SF-268 = experiment: Cytotoxicity against Homo sapiens (human) SF268 cells assessed as cell growth at 10^-4 M after 48 hr by […] assay; conditions: SF-268, 48 h, read-out: Activity
SK-MEL-2 = experiment: Cytotoxicity against Homo sapiens (human) SK-MEL-2 cells after 48 hr by sulforhodamine B assay; conditions: SK-MEL-2, 48 h
PC-3 = experiment: Cytotoxicity against Homo sapiens (human) PC3 cells after 48 hr by sulforhodamine B assay; conditions: PC-3, 48 h
NCI-H322M = experiment: Cytotoxicity against Homo sapiens (human) NCI-H322M cells after 48 hr by sulforhodamine B assay
HCC 2998 = experiment: Cytotoxicity against Homo sapiens (human) HCC2998 cells after 48 hr by sulforhodamine B assay; conditions: HCC 2998, 48 h
SF-295 = experiment: Cytotoxicity against Homo sapiens (human) SF295 cells after 48 hr by sulforhodamine B assay; conditions: SF-295, 48 h
NCI-H460 = experiment: Cytotoxicity against Homo sapiens (human) NCI-H460 cells after 48 hr by sulforhodamine B assay; conditions: NCI-H460, 48 h
Hs-578T = experiment: Cytotoxicity against Homo sapiens (human) Hs 578T cells after 48 hr by sulforhodamine B assay
SK-OV-3 = experiment: Cytotoxicity against Homo sapiens (human) SKOV3 cells after 48 hr by sulforhodamine B assay; conditions: SK-OV-3, 48 h
MCF7 = experiment: Cytotoxicity against Homo sapiens (human) MCF7 cells after 48 hr by sulforhodamine B assay; conditions: MCF7, 48 h
COLO 205 = experiment: Cytotoxicity against Homo sapiens (human) COLO205 cells after 48 hr by sulforhodamine B assay; conditions: COLO 205, 48 h
HCT-116 = experiment: Cytotoxicity against Homo sapiens (human) HCT116 cells after 48 hr by sulforhodamine B assay; conditions: HCT-116, 48 h
HT-29 = experiment: Cytotoxicity against Homo sapiens (human) HT-29 cells after 48 hr by sulforhodamine B assay; conditions: HT-29, 48 h
T47D = experiment: Cytotoxicity against Homo sapiens (human) T47D cells after 48 hr by sulforhodamine B assay
EKVX = experiment: Cytotoxicity against Homo sapiens (human) EKVX cells after 48 hr by sulforhodamine B assay
TK-10 = experiment: Cytotoxicity against Homo sapiens (human) TK10 cells after 48 hr by sulforhodamine B assay; conditions: TK-10, 48 h
RPMI-8226 = experiment: Cytotoxicity against Homo sapiens (human) RPMI8226 cells after 48 hr by sulforhodamine B assay; conditions: RPMI-8226, 48 h
OVCAR-5 = experiment: Cytotoxicity against Homo sapiens (human) OVCAR5 cells after 48 hr by sulforhodamine B assay; conditions: OVCAR-5, 48 h
MOLT-4 = experiment: Cytotoxicity against Homo sapiens (human) MOLT4 cells after 48 hr by sulforhodamine B assay; conditions: MOLT-4, 48 h
OVCAR-3 = experiment: Cytotoxicity against Homo sapiens (human) OVCAR3 cells after 48 hr by sulforhodamine B assay; conditions: OVCAR-3, 48 h
MDA-MB-231 = experiment: Cytotoxicity against Homo sapiens (human) MDA-MB-231 cells after 48 hr by sulforhodamine B assay; conditions: MDA-MB-231, 48 h
SW-620 = experiment: Cytotoxicity against Homo sapiens (human) SW620 cells after 48 hr by sulforhodamine B assay; conditions: SW-620, 48 h
KM12 = experiment: Cytotoxicity against Homo sapiens (human) KM12 cells after 48 hr by sulforhodamine B assay; conditions: KM12, 48 h
RXF 393 = experiment: Cytotoxicity against Homo sapiens (human) RXF393 cells after 48 hr by sulforhodamine B assay; conditions: RXF 393, 48 h
SK-MEL-5 = experiment: Cytotoxicity against Homo sapiens (human) SK-MEL-5 cells after 48 hr by sulforhodamine B assay; conditions: SK-MEL-5, 48 h
OVCAR-4 = experiment: Cytotoxicity against Homo sapiens (human) OVCAR4 cells after 48 hr by sulforhodamine B assay; conditions: OVCAR-4, 48 h
[1] = read-out: LC50 (the source's name)

Work on `ClCc1ccc(Cn2cnc3nc(Cl)nc(Cl)c32)cc1` yielded a GI50 (IGROV-1) of 1.41 µM, an LC50 (IGROV-1) of 5.75 µM and a TGI (IGROV-1) of 2.81 µM. The GI50 (HOP-62) was 1.9 µM, the TGI (HOP-62) was 3.89 µM and the CC50 (HOP-62; [1]) was 7.94 µM. It also gave a GI50 (DU-145) of 1.81 µM, an LC50 (DU-145) of 6.6 µM and a TGI (DU-145) of 3.46 µM. For the same compound, the GI50 (MDA-MB-435) was 1.62 µM, the LC50 (MDA-MB-435) was 5.75 µM and the TGI (MDA-MB-435) was 3.01 µM. The GI50 (SNB-75) was 2.08 µM, the TGI (SNB-75) was 3.98 µM and the CC50 (SNB-75; [1]) was 7.41 µM. It also gave a growth at 100 µM (SF-268) of 0%, a GI50 (SK-MEL-2) of 1.12 µM and an LC50 (concentration killing 50% of cells) (SK-MEL-2) of 6.45 µM. The TGI (SK-MEL-2) was 2.69 µM, the GI50 (PC-3) was 17.8 µM and the LC50 (concentration causing 50% cell kill) (PC-3) was 75.9 µM. The TGI (PC-3) was 37.1 µM, the GI50 (NCI-H322M) was 0.67 µM and the TGI (NCI-H322M) was 1.9 µM. The CC50 (NCI-H322M; [1]) was 4.46 µM, the GI50 (HCC 2998) was 2.04 µM and the TGI (HCC 2998) was 3.8 µM. The CC50 (HCC 2998; [1]) was 7.07 µM, the GI50 (SF-295) was 1.81 µM and the TGI (SF-295) was 3.31 µM. It also gave a CC50 (SF-295; [1]) of 5.88 µM, a GI50 (NCI-H460) of 15.5 µM and a TGI (NCI-H460) of 35.5 µM. For the same compound, the CC50 (NCI-H460; [1]) was 79.4 µM, the GI50 (Hs-578T) was 19.1 µM and the LC50 (Hs-578T) was greater than 100 µM. For the same compound, the TGI (Hs-578T) was 44.7 µM, the GI50 (SK-OV-3) was 2.34 µM and the LC50 (SK-OV-3) was 18.2 µM. It also gave a TGI (SK-OV-3) of 5.01 µM, a GI50 (MCF7) of 4.16 µM and an LC50 (concentration killing 50% of cells) (MCF7) of 83.2 µM. For the same compound, the TGI (MCF7) was 17 µM, the GI50 (COLO 205) was 17.4 µM and the TGI (COLO 205) was greater than 100 µM. For the same compound, the CC50 (COLO 205; [1]) was greater than 100 µM, the GI50 (HCT-116) was 0.12 µM and the TGI (HCT-116) was 1.24 µM. The CC50 (HCT-116; [1]) was greater than 100 µM, the GI50 (HT-29) was 3.54 µM and the TGI (HT-29) was greater than 100 µM. The CC50 (HT-29; [1]) was greater than 100 µM, the GI50 (T47D) was 10.2 µM and the LC50 (T47D) was greater than 100 µM. For the same compound, the TGI (T47D) was 46.8 µM, the GI50 (EKVX) was 1.9 µM and the TGI (EKVX) was 3.46 µM. For the same compound, the CC50 (EKVX; [1]) was 6.3 µM, the GI50 (TK-10) was 0.12 µM and the TGI (TK-10) was 0.29 µM. For the same compound, the CC50 (TK-10; [1]) was 0.72 µM, the GI50 (RPMI-8226) was 1.65 µM and the TGI (RPMI-8226) was 28.2 µM. It also gave a CC50 (RPMI-8226; [1]) of 97.7 µM, a GI50 (OVCAR-5) of 2.18 µM and a TGI (OVCAR-5) of 4.26 µM. The CC50 (OVCAR-5; [1]) was 8.31 µM, the GI50 (MOLT-4) was 1.38 µM and the TGI (MOLT-4) was 5.49 µM. The CC50 (MOLT-4; [1]) was greater than 100 µM, the GI50 (OVCAR-3) was 0.3 µM and the LC50 (OVCAR-3) was 2.51 µM. The TGI (OVCAR-3) was 0.72 µM, the GI50 (MDA-MB-231) was 1.62 µM and the LC50 (MDA-MB-231) was 6.02 µM. For the same compound, the TGI (MDA-MB-231) was 3.09 µM, the GI50 (SW-620) was 13.2 µM and the TGI (SW-620) was 28.8 µM. For the same compound, the CC50 (SW-620; [1]) was 64.6 µM, the GI50 (KM12) was 0.26 µM and the TGI (KM12) was 0.67 µM. The CC50 (KM12; [1]) was 2.45 µM, the GI50 (RXF 393) was 1.65 µM and the TGI (RXF 393) was 3.98 µM. For the same compound, the GI50 (SK-MEL-5) was 2.45 µM, the LC50 (SK-MEL-5) was 31.6 µM and the TGI (SK-MEL-5) was 9.12 µM. It also gave a GI50 (OVCAR-4) of 2.08 µM and a TGI (OVCAR-4) of 4.16 µM.

Reference: ChEMBL document CHEMBL3044672, “N9- and N7-(Chloromethyl Phenymethyl)Chloropurine Derivatives from , '-Dichloroxylenes: Synthesis and Anticancer Activity” (2005)
